Measured values: the NIST ThermoML archive (doi:10.1021/acs.jced.7b01026)

Tests used:
[1] = molar heat capacity at constant pressure
[2] = Crystal; DTA
[3] = Molar enthalpy of transition or fusion; conditions: Crystal; DSC

Cc1cccc(C=O)c1 [3-methylbenzaldehyde]
[1], 101.33 kPa, Liquid, DSC
Conditions | molar heat capacity at constant pressure [J/K/mol]
273.17 K | 189.47
313.16 K | 205.93
353.15 K | 219.75
393.14 K | 235.61
453.11 K | 258.08

Conditions | Normal melting temperature [°C]
[2] | -48.4

Cc1cccc(CO)c1 [3-methylbenzyl alcohol]
[1], 101.33 kPa, DSC, Liquid
Conditions | molar heat capacity at constant pressure [J/K/mol]
266.15 K | 222.22
306.15 K | 250.8
356.15 K | 281.1
406.15 K | 295.27
456.15 K | 308.1

Conditions | Molar enthalpy of transition or fusion [kJ/mol] | Normal melting temperature [°C]
[2] | – | -8.8
[3] | 13.6 | –

Cc1ccc(C=O)cc1 [4-methylbenzaldehyde]
[1], 101.33 kPa, DSC, Liquid
Conditions | molar heat capacity at constant pressure [J/K/mol]
273.17 K | 191.4
313.16 K | 204.25
353.15 K | 216.27
393.14 K | 232.37
453.11 K | 250.99

Conditions | Molar enthalpy of transition or fusion [kJ/mol] | Normal melting temperature [°C]
[2] | – | -10.0
[3] | 11 | –

Cc1ccc(C(=O)O)cc1 [4-methylbenzoic acid]
[1], 101.33 kPa, Liquid, DSC
Conditions | molar heat capacity at constant pressure [J/K/mol]
458.15 K | 331.25
473.15 K | 338.33
488.15 K | 347.59
503.15 K | 353.98
523.15 K | 362.02

Conditions | Molar enthalpy of transition or fusion [kJ/mol] | Normal melting temperature [°C]
[2] | – | 179.0
[3] | 21.5 | –

Cc1ccc(C=O)o1 [5-methylfurfural]
[1], 101.33 kPa, Liquid, DSC
Conditions | molar heat capacity at constant pressure [J/K/mol]
250.15 K | 180.47
300.15 K | 192.47
350.14 K | 202.49
400.13 K | 219.34
450.1 K | 233.54

Conditions | Molar enthalpy of transition or fusion [kJ/mol] | Normal melting temperature [°C]
[2] | – | -32.6
[3] | 11.6 | –

CCOC(=O)Cc1ccccc1 [ethyl phenylacetate]
[1], 101.33 kPa, Liquid, DSC
Conditions | molar heat capacity at constant pressure [J/K/mol]
253.15 K | 271.75
293.15 K | 288.83
333.15 K | 292.77
373.15 K | 306.89
413.15 K | 326.27

Conditions | Molar enthalpy of transition or fusion [kJ/mol] | Normal melting temperature [°C]
[2] | – | -29
[3] | 18.1 | –

CCCCCCC1CCCCC1 [hexylcyclohexane]
[1], 101.33 kPa, Liquid, DSC
Conditions | molar heat capacity at constant pressure [J/K/mol]
228.16 K | 292.03
288.16 K | 330.24
348.14 K | 361.21
408.13 K | 408.85
468.09 K | 463.72

Conditions | Molar enthalpy of transition or fusion [kJ/mol] | Normal melting temperature [°C]
[2] | – | -48.2
[3] | 20.5 | –

CC(=O)Oc1ccccc1 [phenyl ethanoate]
[1], 101.33 kPa, Liquid, DSC
Conditions | molar heat capacity at constant pressure [J/K/mol]
253.15 K | 220.42
293.15 K | 224.78
333.15 K | 240.03
373.15 K | 255.41
413.15 K | 269.44

Conditions | Molar enthalpy of transition or fusion [kJ/mol] | Normal melting temperature [°C]
[2] | – | -7
[3] | 12.8 | –

CCCCCC(=O)CCCCC [undecan-6-one]
[1], 101.33 kPa, Liquid, DSC
Conditions | molar heat capacity at constant pressure [J/K/mol]
293.16 K | 363.74
343.16 K | 381.62
373.15 K | 402.4
423.13 K | 422.49
473.1 K | 463.02

Conditions | Molar enthalpy of transition or fusion [kJ/mol] | Normal melting temperature [°C]
[2] | – | 13
[3] | 31.3 | –
